Laboratory results published in patent US20250319056A1, “METHODS FOR TREATING CANCER” (THE TRUSTEES OF INDIANA UNIVERSITY, priority 2024, published 2025).

Legend:
NCI-60 cancer cell panel [1] = experiment: NCI-60 panel single-dose cell growth screen; format: cell-based; details: single dose 10 μM; 0 = cytostatic, -100% = cytocidal, +100% = growth
Experimental: FIGS. 10A-10J show cell growth results for 10 lead candidate inhibitors (compound 162, FIG. 10A; compound 163, FIG. 10B; compound 164, FIG. 10C; compound 4, FIG. 10D; compound 165, FIG. 10E; compound 139, FIG. 10F; compound 132, FIG. 10G; compound 143, FIG. 10H; compound 147, FIG. 10I; compound 128, FIG. 10J) tested at 10 μM against the NCI cancer cell panel. Zero indicates no cells growth/death from what was initially plated (cytostatic inhibition). −100% indicates […] (cytocidal inhibition). +100% indicates cell growth.
In a previous study evaluating the anti-cancer effects of ABK inhibitors, the National Cancer Institute (NCI) database was explored for existing cytotoxicity results for any compounds bearing α,β-unsaturated ketone moieties against the comprehensive NCI-60 cancer cell panel. […] The HQ-NAH and NF-NAH inhibitor library was explored based on the similarity to Nifuroxazide's scaffold. […] Initial screening was performed at a single concentration of 10 μM, and cell growth results are presented in aggregate based on cancer cell origin (FIGS. 10A-10J).

NCI-60 cancer cell panel [2] = experiment: NCI-60 panel dose-response cell growth testing; format: cell-based; details: follow-up dose response, range across NCI-60 cell lines
Excerpt: FIGS. 11A-11G show cell growth results in dose-response for 7 lead candidate inhibitors (compound 162, FIG. 11A; compound 164, FIG. 11B; compound 128, FIG. 11C compound 165, FIG. 11D; compound 139, FIG. 11E; compound 143, FIG. 11F; compound 147, FIG. 11G) from initial single-dose NCI-60 screen.
Therefore, they appeared to act in a cytocidal manner.

DLD-1 cells = experiment: AlamarBlue cell viability assay, DLD-1 colon cancer cells; format: cell-based; details: Homo sapiens, 48 h with compound, ^BP = curve baseline plateaued between ~10-20%, read-out: Human Cell Viability EC50 Colon Cancer (DLD1)
HCT-116 cells = experiment: AlamarBlue cell viability assay, HCT-116 colon cancer cells; format: cell-based, human; details: for Average Selectivity Index: CC50 non-cancer cells (FHC, FHs 74Int) compared to EC50 HCT-116; for EC50: Homo sapiens, HCT-116, 48 h, AlamarBlue, 48 h with compound, read-out: Human Cell Viability EC50 Colon Cancer (HCT 116)
[3] = AlamarBlue cell viability assay, non-cancerous intestine FHs-74Int cells; details: human, FHs-74Int non-cancerous intestine cells, Human Cell Viability CC50 Intestine (FHs 74Int), non-cancerous intestine cells, AlamarBlue, 48 h
[4] = AlamarBlue cell viability assay, non-cancerous colon FHC cells; details: human, FHC non-cancerous colon cells, Human Cell Viability CC50 Colon (FHC), non-cancerous colon cells, AlamarBlue, 48 h
HT-29 cells = experiment: AlamarBlue cell viability assay, HT-29 colon cancer cells; format: cell-based; details: Homo sapiens, 48 h with compound, ^BP = curve baseline plateaued between ~10-20%
GroEL/ES = target: T1, GroEL/ES (Escherichia coli, UniProt P0A6F5); experiment: GroEL/ES-dMDH refolding assay; format: biochemical, E. coli
T1 construct: made in house; host or cells: NEB 5-alpha E. coli for GroEL; E. coli BL21 (DE3) for GroES
T1 sequence (P0A6F5 2-548): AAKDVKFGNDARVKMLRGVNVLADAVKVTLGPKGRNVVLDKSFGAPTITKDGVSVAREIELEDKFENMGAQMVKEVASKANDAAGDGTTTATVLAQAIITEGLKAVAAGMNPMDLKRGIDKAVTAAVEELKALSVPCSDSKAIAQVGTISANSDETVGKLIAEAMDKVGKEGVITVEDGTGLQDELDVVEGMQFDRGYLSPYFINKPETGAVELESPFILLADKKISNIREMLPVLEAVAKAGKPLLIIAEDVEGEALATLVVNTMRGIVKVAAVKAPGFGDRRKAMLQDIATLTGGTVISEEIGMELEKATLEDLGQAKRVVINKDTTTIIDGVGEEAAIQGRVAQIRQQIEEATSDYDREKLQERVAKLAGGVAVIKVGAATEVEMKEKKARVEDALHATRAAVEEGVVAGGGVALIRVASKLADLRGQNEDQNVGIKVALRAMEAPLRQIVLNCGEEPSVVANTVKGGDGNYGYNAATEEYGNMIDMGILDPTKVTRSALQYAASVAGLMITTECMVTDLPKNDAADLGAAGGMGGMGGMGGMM

FHs-74Int cells = experiment: AlamarBlue cell viability assay, non-cancerous intestine FHs-74Int cells; details: read-out: Human Cell Viability CC50 Intestine (FHs 74Int); non-cancerous intestine cells, AlamarBlue, 48 h
mHSP60/10 = target: T2, mHSP60/10 (Homo sapiens, UniProt P10809); experiment: mHSP60/10-mediated dMDH refolding assay; format: biochemical; details: denatured malate dehydrogenase client; read-out: IC50 mHSP60/10-dMDH refolding
T2 construct: Processed human HSP60 (mHSP60—that would be in mitochondria) was expressed in Rosetta™ 2 (DE3) E. coli; octa-Histidine tag (TEV-cleavable) (N, cleaved yes); made in house; host or cells: E. coli Rosetta 2 (DE3) for mHSP60; Rosetta 2 (DE3) pLysS for HSP10
T2 sequence (P10809 27-573): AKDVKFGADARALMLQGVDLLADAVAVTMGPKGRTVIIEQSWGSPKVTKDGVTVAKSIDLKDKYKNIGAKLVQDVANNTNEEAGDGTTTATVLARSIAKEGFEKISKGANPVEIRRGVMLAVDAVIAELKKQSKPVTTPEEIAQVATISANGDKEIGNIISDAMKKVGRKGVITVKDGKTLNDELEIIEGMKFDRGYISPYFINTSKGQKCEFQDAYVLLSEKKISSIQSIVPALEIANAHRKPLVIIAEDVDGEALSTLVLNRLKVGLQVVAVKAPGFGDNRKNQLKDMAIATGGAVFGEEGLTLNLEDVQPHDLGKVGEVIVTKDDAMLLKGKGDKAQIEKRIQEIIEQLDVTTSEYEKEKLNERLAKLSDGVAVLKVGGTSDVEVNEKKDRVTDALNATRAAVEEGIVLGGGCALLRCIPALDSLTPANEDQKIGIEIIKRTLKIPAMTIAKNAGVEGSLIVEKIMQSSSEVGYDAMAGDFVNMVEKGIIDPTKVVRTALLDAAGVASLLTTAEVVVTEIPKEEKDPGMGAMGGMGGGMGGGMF

FHC cells = experiment: AlamarBlue cell viability assay, non-cancerous colon FHC cells; details: read-out: Human Cell Viability CC50 Colon (FHC); non-cancerous colon cells, AlamarBlue, 48 h

SMILES | cell growth % NCI cancer cell panel (NCI-60 cancer cell panel [1]) | GI50 (NCI-60 cancer cell panel [2]) [µM] | EC50 (DLD-1 cells) [µM] | Average Selectivity Index (HCT-116 cells) | EC50 (HCT-116 cells) [µM] | CC50 at 48 h [3] [µM] | CC50 at 48 h [4] [µM] | EC50 (HT-29 cells) [µM] | IC50 (GroEL/ES) [µM] | CC50 (FHs-74Int cells) [µM] | IC50 (mHSP60/10) [µM] | CC50 (FHC cells) [µM]
O=C(N/N=C/c1ccc(O)c2ncccc12)c1ccc(O)cc1 [Compound 139, 4-hydroxy-N′-((8-hydroxyquinolin-5-yl)methylene)benzohydrazide] | around 0% | 1 to 5 | 19 | 11 | 7.4 | 56 | > 100 | 6.3 |  |  |  | 
O=C(N/N=C/c1ccc([N+](=O)[O-])o1)c1cccc(Oc2ccccc2)c1 [Compound 128, N′-((5-nitrofuran-2-yl)methylene)-3-phenoxybenzohydrazide] | a range of positive, negative, and zero growth | 1 to 31 | 7.3 | 17.4 | 3.5 | 60 | 61 | 1.6 |  |  |  | 
COc1ccc(C(=O)N/N=C/c2ccc(O)c3ncccc23)cc1 [Compound 18, N′-((8-hydroxyquinolin-5-yl)methylene)-4-methoxybenzohydrazide] |  |  | 3.8 | 5.3 | 7.8 | 54.9 | 28.4 | 3.5 | 0.8 to 9 | 55 | 0.8 to 9 | 28
